Measured values as given in publication PMC11204291, “Structural characterization of macro domain–containing Thoeris antiphage defense systems” (Science Advances, 2024).

Key:
[1] = target: T1, EcThsA (ThsA TM-macro effector), macro domain (Escherichia coli, UniProt A0A0H2V895, F250A/I219A/K249E/Q207E/R182E/R221E); assay: ITC (~[…]); STD NMR; assay type: binding
T1 construct: gene c2400; EcThsA^Macro; residues 62 to 278
T1 sequence (A0A0H2V895 62-278 R182E/Q207E/I219A/R221E/K249E/F250A): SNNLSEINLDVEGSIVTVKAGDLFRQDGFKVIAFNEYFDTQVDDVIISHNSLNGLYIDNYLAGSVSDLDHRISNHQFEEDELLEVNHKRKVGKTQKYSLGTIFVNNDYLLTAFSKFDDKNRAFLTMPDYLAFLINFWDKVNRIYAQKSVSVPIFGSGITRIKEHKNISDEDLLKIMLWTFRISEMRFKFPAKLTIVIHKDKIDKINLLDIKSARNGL

[2] = target: T2, EcThsA (ThsA TM-macro effector), macro domain (Escherichia coli, UniProt A0A0H2V895); assay: crystal structure of soaked complex ([…] Å); STD NMR; assay type: binding
T2 construct: gene c2400; EcThsA^Macro; residues 62 to 278
T2 sequence (A0A0H2V895 62-278): T1 sequence (A0A0H2V895 62-278 R182E/Q207E/I219A/R221E/K249E/F250A)

[3] = target: T3, EcThsA (ThsA TM-macro effector), macro domain (Escherichia coli, UniProt A0A0H2V895, N114A); assay: STD NMR; assay type: binding
T3 construct: gene c2400; EcThsA^Macro; residues 62 to 278

[4] = target: T4, PcThsA (ThsA TM-macro effector), macro domain (Pseudomonas corrugata, UniProt A0A7Y5Z1U6); assay: crystal structure ([…] Å) with copurified ligand; LC-MS; assay type: binding
T4 construct: gene HNO91_03675; PcThsA^Macro; residues 63 to 278
T4 sequence (A0A7Y5Z1U6 entry or part of it): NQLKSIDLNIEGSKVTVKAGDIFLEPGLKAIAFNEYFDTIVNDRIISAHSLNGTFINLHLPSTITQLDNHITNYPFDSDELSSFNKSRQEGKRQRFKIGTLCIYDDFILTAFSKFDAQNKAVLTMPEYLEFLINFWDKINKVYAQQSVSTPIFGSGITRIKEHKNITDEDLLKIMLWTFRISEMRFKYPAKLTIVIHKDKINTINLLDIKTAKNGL

[5] = target: T2, EcThsA (ThsA TM-macro effector), macro domain; assay: ligand-induced self-aggregation of purified protein (turbidity, SDS-PAGE); assay type: binding
[6] = target: T1, EcThsA (ThsA TM-macro effector), macro domain; assay: ITC; assay type: binding
EcThsB1, TIR domain [7] = target: T5, EcThsB1, TIR domain (Escherichia coli, UniProt A0A0H2V8B5); assay: real-time 1H NMR NADase assay; assay type: biochemical
T5 construct: gene TcpC; EcThsB1^TIR; residues 165 to 307
T5 sequence (A0A0H2V8B5 165-307 limits assumed): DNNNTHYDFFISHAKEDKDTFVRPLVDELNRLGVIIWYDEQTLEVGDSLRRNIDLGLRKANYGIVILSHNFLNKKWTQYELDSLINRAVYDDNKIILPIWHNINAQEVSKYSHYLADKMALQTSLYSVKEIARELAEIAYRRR

EcThsB1, TIR domain [8] = target: T5, EcThsB1, TIR domain; assay: 1H NMR base-exchange assay; assay type: biochemical
[9] = target: macro domain of EcThsA (EcThsA^Macro; residues 62 to 278), wild type (E. coli CFT073); assay: SEC-MALS; Superdex 200 5/150 Increase equilibrated in gel filtration buffer, 30 μl of EcThsA^Macro at 0.25 ml/min; no ligand; monomer to dimer
[10] = target: macro domain of EcThsA (EcThsA^Macro; residues 62 to 278), wild type (E. coli CFT073); assay: aggregation assay (SDS-PAGE of soluble and insoluble fractions); protein 47 μM incubated with 1 mM ADPR (or 1 mM IAD) at 4°C for 1 hour; higher-order self-association of the dimers

## Nc1ncnc2c1ncn2[C@@H]1O[C@H](COP(=O)(O)OP(=O)(O)OC[C@H]2O[C@H](O)[C@H](O)[C@@H]2O)[C@@H](O)[C@H]1O [ADPR]
[1]
  Kd: 4600 ± 500 nM
[2]
  crystal structure of soaked complex (2.1 Å); STD NMR: we observed continuous electron density for a molecule corresponding to ADPR in a highly conserved cleft
[3]
  STD NMR: The N114A mutant could still bind ADPR (Fig. 1I), but the STD NMR signal intensities were different

## Nc1ncnc2c1ncn2[C@@H]1O[C@H](COP(=O)(O)OP(=O)(O)OC[C@H]2O[C@@H](n3ccnc3)[C@H](O)[C@@H]2O)[C@@H](O)[C@H]1O [IAD]
[4]
  crystal structure (1.6 Å) with copurified ligand; LC-MS: revealed that the PcThsA^Macro bound nucleotide has a mass corresponding to IAD
[5]
  ligand-induced self-aggregation of purified protein (turbidity, SDS-PAGE): demonstrating that only ADPR and IAD can trigger self-aggregation of EcThsA^Macro
[6]
  Kd: 167 ± 91 nM

## NC(=O)c1ccc[n+]([C@@H]2O[C@H](COP(=O)([O-])OP(=O)(O)OC[C@H]3O[C@@H](n4cnc5c(N)ncnc54)[C@H](O)[C@@H]3O)[C@@H](O)[C@H]2O)c1 [NAD^+]
EcThsB1, TIR domain [7]
  real-time 1H NMR NADase assay: could use NAD^+ as a substrate to produce nicotinamide and ADP ribose (ADPR)

## NCCc1c[nH]cn1 [histamine]
EcThsB1, TIR domain [8]
  1H NMR base-exchange assay: EcThsB1^TIR could use the histidine catabolite histamine as a substrate in base-exchange reactions, but not histidine

## c1c[nH]cn1 [imidazole]
EcThsB1, TIR domain [8]
  1H NMR base-exchange assay: only imidazole, histamine, and thiazole were observed to undergo base-exchange reactions with NAD^+ in the presence of EcThsB1^TIR

## macro domain of EcThsA (EcThsA^Macro; residues 62 to 278), wild type (domain or fragment)
[9]
  stoichiometry N: 2
[10]
  percent of the protein in the insoluble fraction after incubation with ADPR or IAD: > 50%
